# Laboratory results: ChEMBL document CHEMBL1201862, “PubChem BioAssay data set” (2004)
#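 96-well plates; 48 h exposure; 5 concentrations. Endpoints by linear interpolation between flanking doses. Not reached: highest tested concentration assigned. At the GI50, growth is halved.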 Activity calls are given as the source filed them. Rule as the data show it: active = GI50 up to about 1.1 µM and inactive = higher.
# Legend:
# Assay in all cases: inhibition of tumour cell growth, NCI panel, 48 h
# [1] = system: LOX IMVI
# [2] = system: HCT-116
# [3] = system: HT-29
# [4] = system: SNB-75
# [5] = system: SF-295
# [6] = system: HCT-15
# [7] = system: U-251
# [8] = system: KM12
# [9] = system: OVCAR-3
# [10] = system: NCI-H226
# [11] = system: 786-0
# [12] = system: UO-31
# [13] = system: HL-60
# [14] = system: RXF 393
# [15] = system: LXFL 529
# [16] = system: ACHN
# [17] = system: MOLT-4
# [18] = system: KM-20L2
# [19] = system: TK-10
# [20] = system: EKVX
# [21] = system: SF-539
# [22] = system: COLO 205
# [23] = system: IGROV-1
# [24] = system: HOP-18
# [25] = system: SK-MEL-2
# [26] = system: A549
# [27] = system: SR
# [28] = system: UACC-62
# [29] = system: CCRF-CEM
# [30] = system: K562
# [31] = system: Malme-3M
# [32] = system: SK-OV-3
# [33] = system: HOP-62
# [34] = system: OVCAR-8
# [35] = system: M14
# [36] = system: M19-MEL
# [37] = system: RPMI-8226
# [38] = system: A498
# [39] = system: SF-268
# [40] = system: SK-MEL-28
# [41] = system: NCI-H460
# [42] = system: OVCAR-5
# [43] = system: OVCAR-4
# [44] = system: SN12C
# [45] = system: DMS-273
# [46] = system: SNB-78
# [47] = system: SNB-19
# [48] = system: HCC 2998
# [49] = system: CAKI-1
# [50] = system: SK-MEL-5
# [51] = system: SW-620
# [52] = system: DLD-1
# [53] = system: NCI-H522
# [54] = system: HOP-92
# [55] = system: UACC-257
# [56] = system: DMS-114
# [57] = system: NCI-H23
structure (smiles),measurement,setting,value
Cc1ccc2c(C)c3ccc4ccccc4c3c[n+]2c1.[O-][Cl+3]([O-])([O-])[O-],GI50,[1],34.6 µM (inactive)
same,GI50,[2],27.5 µM (inactive)
same,GI50,[3],32.4 µM (inactive)
same,GI50,[4],11.2 µM (inactive)
same,GI50,[5],23.1 µM (inactive)
same,GI50,[6],52.1 µM
same,GI50,[7],5.02 µM (inactive)
same,GI50,[8],2.94 µM (inactive)
same,GI50,[9],7.35 µM (inactive)
same,GI50,[10],5.81 µM (inactive)
same,GI50,[11],9.18 µM (inactive)
same,GI50,[12],33.6 µM (inactive)
same,GI50,[13],31.6 µM (inactive)
same,GI50,[14],20.1 µM (inactive)
same,GI50,[15],9.1 µM (inactive)
same,GI50,[16],58.7 µM (inactive)
same,GI50,[17],3.99 µM (inactive)
same,GI50,[18],33.3 µM (inactive)
same,GI50,[19],53.5 µM (inactive)
same,GI50,[20],13.7 µM (inactive)
same,GI50,[21],11.5 µM (inactive)
same,GI50,[22],12.2 µM (inactive)
same,GI50,[23],31.4 µM (inactive)
same,GI50,[24],12.4 µM (inactive)
same,GI50,[25],13.9 µM (inactive)
same,GI50,[26],16.3 µM (inactive)
same,GI50,[27],12 µM (inactive)
same,GI50,[28],13.7 µM (inactive)
same,GI50,[29],11.1 µM (inactive)
same,GI50,[30],56.5 µM (inactive)
same,GI50,[31],2.88 µM (inactive)
same,GI50,[32],17.7 µM (inactive)
same,GI50,[33],13.8 µM (inactive)
same,GI50,[34],10 µM (inactive)
same,GI50,[35],17.9 µM (inactive)
same,GI50,[36],4.88 µM (inactive)
same,GI50,[37],16.6 µM (inactive)
same,GI50,[38],60 µM (inactive)
same,GI50,[39],2.57 µM (inactive)
same,GI50,[40],15.3 µM (inactive)
same,GI50,[41],14.3 µM (inactive)
same,GI50,[42],51.3 µM (inactive)
same,GI50,[43],16 µM (inactive)
same,GI50,[44],4.68 µM (inactive)
same,GI50,[45],11.5 µM (inactive)
same,GI50,[46],41.4 µM (inactive)
same,GI50,[47],6.46 µM (inactive)
same,GI50,[48],12.9 µM (inactive)
same,GI50,[49],23.9 µM (inactive)
same,GI50,[50],12 µM (inactive)
same,GI50,[51],10.1 µM (inactive)
same,GI50,[52],37.8 µM (inactive)
same,GI50,[53],11.2 µM (inactive)
same,GI50,[54],17.9 µM (inactive)
same,GI50,[55],12.4 µM (inactive)
same,GI50,[56],10.6 µM (inactive)
same,GI50,[57],14.6 µM (inactive)
Cc1cccc(NC(=O)C(=O)C2C(=O)NC(=O)NC2=O)c1C,GI50,[1],> 100 µM (inactive)
same,GI50,[2],> 100 µM (inactive)
same,GI50,[3],> 100 µM (inactive)
same,GI50,[4],> 100 µM (inactive)
same,GI50,[5],> 100 µM (inactive)
same,GI50,[6],> 100 µM
same,GI50,[7],> 100 µM (inactive)
same,GI50,[8],> 100 µM (inactive)
same,GI50,[9],> 100 µM (inactive)
same,GI50,[10],> 100 µM (inactive)
same,GI50,[11],> 100 µM (inactive)
same,GI50,[12],> 100 µM (inactive)
same,GI50,[13],> 100 µM (inactive)
same,GI50,[14],> 100 µM (inactive)
same,GI50,[15],> 100 µM (inactive)
same,GI50,[16],> 100 µM (inactive)
same,GI50,[17],> 100 µM (inactive)
same,GI50,[18],> 100 µM (inactive)
same,GI50,[19],> 100 µM (inactive)
same,GI50,[20],> 100 µM (inactive)
same,GI50,[21],> 100 µM (inactive)
same,GI50,[22],> 100 µM (inactive)
same,GI50,[23],> 100 µM (inactive)
same,GI50,[24],> 100 µM (inactive)
same,GI50,[25],> 100 µM (inactive)
same,GI50,[26],> 100 µM (inactive)
same,GI50,[27],> 100 µM (inactive)
same,GI50,[28],> 100 µM (inactive)
same,GI50,[29],> 100 µM (inactive)
same,GI50,[30],> 100 µM (inactive)
same,GI50,[31],> 100 µM (inactive)
same,GI50,[32],> 100 µM (inactive)
same,GI50,[33],> 100 µM (inactive)
same,GI50,[34],> 100 µM (inactive)
same,GI50,[35],> 100 µM (inactive)
same,GI50,[36],> 100 µM (inactive)
same,GI50,[37],> 100 µM (inactive)
same,GI50,[38],> 100 µM (inactive)
same,GI50,[39],> 100 µM (inactive)
same,GI50,[40],> 100 µM (inactive)
same,GI50,[41],> 100 µM (inactive)
same,GI50,[42],> 100 µM (inactive)
same,GI50,[43],> 100 µM (inactive)
same,GI50,[44],> 100 µM (inactive)
same,GI50,[45],> 100 µM (inactive)
same,GI50,[46],> 100 µM (inactive)
same,GI50,[47],> 100 µM (inactive)
same,GI50,[48],> 100 µM (inactive)
same,GI50,[49],> 100 µM (inactive)
same,GI50,[50],> 100 µM (inactive)
same,GI50,[51],> 100 µM (inactive)
same,GI50,[52],> 100 µM (inactive)
same,GI50,[53],> 100 µM (inactive)
same,GI50,[54],> 100 µM (inactive)
same,GI50,[55],> 100 µM (inactive)
same,GI50,[56],> 100 µM (inactive)
same,GI50,[57],> 100 µM (inactive)
